Drawing on patent US11981675B1, “Pyrrolo[3,2-C]quinoline-2,3-dione compounds as CK2 inhibitors” (KING FAISAL UNIVERSITY, priority 2023, dated 2024), this text covers IC50 for 1 molecule.

One experiment deals with MIAPaCa-2 (pancreas). The experiment is described as follows: In vitro cytotoxic activity assay (MTT), MIAPaCa-2. The class given is cell-based. Conditions: Homo sapiens, MIA PaCa-2; MIAPaCa-2 (pancreas) cells, exposed for 96 hours; read-out: Cytotoxicity activity IC50 (50% inhibition of cell proliferation). The protocol:
(§1) Compounds 1-16 were screened for their in vitro cytotoxic activity utilizing a 3-(4,5-dimethyl-thiazol-2-yl)-2,5-diphenyltetrazolium bromide (MTT) assay against selected cancer human cell lines consisting of PC3 (prostate), HCT116 (colon), A375 (melanoma), H1299 (lung), MIAPaCa-2 (pancreas), HL60 (leukemia), MCF7 (breast), MDA-MB-231 (breast) (T. Mosmann, J. Immunol. Meth., 1983, 65, 55-63). The cells were cultured at 37° C. in RMPI1640 medium supplemented with 10% fetal bovine serum, 50 IU/mL penicillin, and 50 μg/mL streptomycin in a 5% CO2 incubator. All cells were sub-cultured 3 times/week by trypsinisation. Viable cells were seeded and allowed to adhere for 12 h before a test drug was added in 96-well plates at an initial density of 1.0×10^5 cells/mL. Tumor cell lines were separately exposed to various concentrations of the tested compounds followed by incubation at a temperature of 37° C. during 96 hours inside a medium of fresh RMPI 1640. Cells were subsequently incubated at 37° C. using MTT at 0.5 mg/mL during 4 hours. After removal of supernatant, formazan crystals were dissolved in isopropanol and the optical density was measured at 570 nm. CX-4945 was used as a positive control.

The test system of the next experiment is MDA-MB-231 (breast). Description: In vitro cytotoxic activity assay (MTT), MDA-MB-231. The experiment is classed as cell-based. The note with it: Homo sapiens; MDA-MB-231 (breast) cells, exposed for 96 hours; read-out: Cytotoxicity activity IC50 (50% inhibition of cell proliferation). How it is done:
as §1

In a further experiment the test system is H1299 (lung). The experiment is described as follows: In vitro cytotoxic activity assay (MTT), H1299. The class given is cell-based. The note with it: Homo sapiens, NCI-H1299; H1299 (lung) cells, exposed for 96 hours; read-out: Cytotoxicity activity IC50 (50% inhibition of cell proliferation). How it is done: as §1
The test system of the next experiment is PC3 (prostate). The experiment is described as follows: In vitro cytotoxic activity assay (MTT), PC3. The class given is cell-based. Conditions: Homo sapiens, Prostate cell; PC3 (prostate) cells, exposed for 96 hours; read-out: Cytotoxicity activity IC50 (50% inhibition of cell proliferation). The protocol: as §1
The next experiment has as its system MCF7 (breast). The experiment is described as follows: In vitro cytotoxic activity assay (MTT), MCF7. Conditions: Homo sapiens; MCF7 (breast) cells, exposed for 96 hours; read-out: Cytotoxicity activity IC50 (50% inhibition of cell proliferation). The experiment is classed as cell-based. The protocol:
as §1

A further experiment concerns HL60 (leukemia). Description: In vitro cytotoxic activity assay (MTT), HL60. The experiment is classed as cell-based. Conditions: Homo sapiens, HL-60; HL60 (leukemia) cells, exposed for 96 hours; read-out: Cytotoxicity activity IC50 (50% inhibition of cell proliferation). How it is done: as §1
Experiment [1] addresses T1, recombinant human CK2 (RRββ-holoenzyme) (Homo sapiens, UniProt P68400).
T1 construct: purchased Millipore
The experiment is described as follows: CK2 Kinase Assay (radiometric, [γ-33P] ATP). Conditions: final ATP concentration 15 μM, 10 min at 30° C., eight concentrations; read-out: protein kinase CK2 activity IC50. The class given is biochemical. The protocol: CK2 Kinase Assay was conducted using the protocol as described in Pierre F. et al; J. Med. Chem. 2011, 54, 635-654. The tested compounds in aqueous solution were added at a volume of 10 μL to a reaction mixture comprising 10 μL of assay dilution buffer (ADB; 20 mM MOPS, pH 7.2, 25 mM β-glycerol phosphate, 5 mM EGTA, 1 mM sodium orthovanadate, and 1 mM dithiothreitol), 10 μL of substrate peptide (RRRDDDSDDD, dissolved in ADB at a concentration of 1 mM), 10 μL of recombinant human CK2 (RRββ-holoenzyme, 25 ng dissolved in ADB; Millipore). Reactions were initiated by the addition of 10 μL of ATP solution (90% 75 mM MgCl2, 75 μM ATP (final ATP concentration:15 μM) dissolved in ADB; 10% [γ-33P] ATP (stock 1 mCi/100 μL; 3000 Ci/mmol (Perkin-Elmer) and maintained for 10 min at 30° C. The reactions were quenched with 100 μL of 0.75% phosphoric acid and then transferred to and filtered through a phosphor cellulose filter plate (Millipore). After washing each well five times with 0.75% phosphoric acid, the plate was dried under vacuum for 5 min and, following the addition of 15 μL of scintillation fluid to each well, the residual radioactivity was measured using a Wallac luminescence counter. The IC50 values were derived from eight concentrations of test inhibitors.

The next experiment has as its system HCT116 (colon). The experiment is described as follows: In vitro cytotoxic activity assay (MTT), HCT116. Conditions: Homo sapiens, HCT-116; HCT116 (colon) cells, exposed for 96 hours; read-out: Cytotoxicity activity IC50 (50% inhibition of cell proliferation). The class given is cell-based. The protocol: as §1
A further experiment relates to A375 (melanoma). Description: In vitro cytotoxic activity assay (MTT), A375. The experiment is classed as cell-based. The note with it: Homo sapiens, A-375; A375 (melanoma) cells, exposed for 96 hours; read-out: Cytotoxicity activity IC50 (50% inhibition of cell proliferation). The protocol:
as §1

T1 sequence (P68400 whole entry): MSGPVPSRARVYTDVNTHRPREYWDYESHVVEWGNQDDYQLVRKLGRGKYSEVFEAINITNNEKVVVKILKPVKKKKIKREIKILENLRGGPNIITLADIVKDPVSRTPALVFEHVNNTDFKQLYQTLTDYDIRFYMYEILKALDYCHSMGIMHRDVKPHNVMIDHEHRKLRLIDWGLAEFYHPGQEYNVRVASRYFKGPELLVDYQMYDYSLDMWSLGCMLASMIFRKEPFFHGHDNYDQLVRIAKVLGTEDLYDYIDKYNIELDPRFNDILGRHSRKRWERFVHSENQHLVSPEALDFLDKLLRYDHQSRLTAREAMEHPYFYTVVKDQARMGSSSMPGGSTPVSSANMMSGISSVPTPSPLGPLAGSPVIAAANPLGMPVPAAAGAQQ
T1 sequence (P67870 whole entry partner): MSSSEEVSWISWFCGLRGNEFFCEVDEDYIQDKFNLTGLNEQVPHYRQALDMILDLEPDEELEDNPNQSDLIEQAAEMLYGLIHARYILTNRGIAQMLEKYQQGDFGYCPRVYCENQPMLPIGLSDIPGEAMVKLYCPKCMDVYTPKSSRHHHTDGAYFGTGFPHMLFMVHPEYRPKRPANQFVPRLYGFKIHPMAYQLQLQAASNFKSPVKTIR

Turning to `O=C1Nc2c(c(Nc3cccc(Cl)c3)nc3cc(C(=O)O)ccc23)C1=O` [Compound (1), 4-((3-chlorophenyl)amino)-2,3-dioxo-2,3-dihydro-1H-pyrrolo[3,2-c]quinoline-7-carboxylic acid], the IC50 with MIAPaCa-2 (pancreas) turned out to be 900 nM; in the experiment on MDA-MB-231 (breast) it was 4100 nM; in the experiment with H1299 (lung) it was 1900 nM; with PC3 (prostate), 1300 nM; with MCF7 (breast) it was 5200 nM; with HL60 (leukemia), 3600 nM. In addition, the IC50 in [1] was found to be 22 nM; in the experiment with HCT116 (colon) it was 1600 nM; with A375 (melanoma), 3200 nM.
